{"source": "ChEMBL document CHEMBL3232945", "about": "(Eur J Med Chem, 2014)", "key": {"Rattus norvegicus [1]": {"test_system": "Rattus norvegicus", "test": "Toxicity in anaesthetized-Wistar rat assessed as P-Q ECG interval at 40 mg/kg, ip after 15 mins (reference value: 52.2 +/- 1.158 ms)", "type": "organism-based", "design": "dose 40 mg/kg, route intraperitoneal", "conditions": "in vivo, 0.25 h"}, "Rattus norvegicus [2]": {"test_system": "Rattus norvegicus", "test": "Antiarrhythmic activity in barium chloride-induced Wistar rat assessed as increase in mortality time at 40 mg/kg, ip administered 60 mins before barium chloride challenge (reference value: 682.8 +/- 9.656 secs)", "type": "functional, Heart", "conditions": "route intraperitoneal"}, "Rattus norvegicus [3]": {"test_system": "Rattus norvegicus", "test": "Toxicity in anaesthetized-Wistar rat assessed as Q-T ECG interval at 40 mg/kg, ip after 30 mins (reference value: 78.3 +/- 0.860 ms)", "type": "organism-based", "design": "dose 40 mg/kg, route intraperitoneal", "conditions": "in vivo, 0.5 h"}, "Rattus norvegicus [4]": {"test_system": "Rattus norvegicus", "test": "Antihypertensive activity in Wistar rat assessed as mean arterial pressure at 40 mg/kg, ip after 45 mins (reference value: 193.96 +/- 0.865 mmHg)", "type": "functional, Artery", "conditions": "route intraperitoneal"}, "Rattus norvegicus [5]": {"test_system": "Rattus norvegicus", "test": "Toxicity in anaesthetized-Wistar rat assessed as Q-T ECG interval at 40 mg/kg, ip after 60 mins (reference value: 79.7 +/- 0.965 ms)", "type": "organism-based", "design": "dose 40 mg/kg, route intraperitoneal", "conditions": "in vivo, 1 h"}, "Rattus norvegicus [6]": {"test_system": "Rattus norvegicus", "test": "Toxicity in anaesthetized-Wistar rat assessed as P-Q ECG interval at 40 mg/kg, ip after 30 mins (reference value: […] +/- 0.927 ms)", "type": "organism-based", "design": "dose 40 mg/kg, route intraperitoneal", "conditions": "in vivo, 0.5 h"}, "Rattus norvegicus [7]": {"test_system": "Rattus norvegicus", "test": "Toxicity in […] normotensive Wistar rat assessed as mean arterial pressure at 40 mg/kg, ip measured immediately at 0 min (reference value: 94.21 +/- 2.065 mmHg)", "type": "organism-based, Artery", "design": "dose 40 mg/kg, route intraperitoneal", "conditions": "in vivo, 0 h"}, "Rattus norvegicus [8]": {"test_system": "Rattus norvegicus", "test": "Toxicity in […] normotensive Wistar rat assessed as mean arterial pressure at 40 mg/kg, ip after 30 mins (reference value: 94.68 +/- 1.213 mmHg)", "type": "organism-based, Artery", "design": "dose 40 mg/kg, route intraperitoneal", "conditions": "in vivo, 0.5 h"}, "Rattus norvegicus [9]": {"test_system": "Rattus norvegicus", "test": "Toxicity in anesthetized-normotensive Wistar rat assessed as heart rate at 40 mg/kg, ip after 30 mins (reference value: 317.68 +/- 7.631 bpm)", "type": "organism-based", "design": "dose 40 mg/kg, route intraperitoneal", "conditions": "in vivo, 0.5 h"}, "Rattus norvegicus [10]": {"test_system": "Rattus norvegicus", "test": "Antihypertensive activity in Wistar rat assessed as mean arterial pressure at 40 mg/kg, ip after 60 mins (reference value: 195.11 +/- 0.531 mmHg)", "type": "functional, Artery", "conditions": "route intraperitoneal"}, "Rattus norvegicus [11]": {"test_system": "Rattus norvegicus", "test": "Antihypertensive activity in Wistar rat assessed as mean arterial pressure at 40 mg/kg, ip after 30 mins (reference value: 194.72 +/- 1.002 mmHg)", "type": "functional, Artery", "conditions": "route intraperitoneal"}, "Rattus norvegicus [12]": {"test_system": "Rattus norvegicus", "test": "Toxicity in anaesthetized-Wistar rat assessed as QRS ECG interval at 40 mg/kg, ip after 45 mins (reference value: 20.2 +/- 1.348 ms)", "type": "organism-based", "design": "dose 40 mg/kg, route intraperitoneal", "conditions": "in vivo, 0.75 h"}, "Rattus norvegicus [13]": {"test_system": "Rattus norvegicus", "test": "Toxicity in anesthetized-normotensive Wistar rat assessed as heart rate at 40 mg/kg, ip after 15 mins (reference value: 313.93 +/- 9.912 bpm)", "type": "organism-based", "design": "dose 40 mg/kg, route intraperitoneal", "conditions": "in vivo, 0.25 h"}, "Rattus norvegicus [14]": {"test_system": "Rattus norvegicus", "test": "Toxicity in […] normotensive Wistar rat assessed as mean arterial pressure at 40 mg/kg, ip after 45 mins (reference value: 94.83 +/- 0.943 mmHg)", "type": "organism-based, Artery", "design": "dose 40 mg/kg, route intraperitoneal", "conditions": "in vivo, 0.75 h"}, "Rattus norvegicus [15]": {"test_system": "Rattus norvegicus", "test": "Toxicity in anaesthetized-Wistar rat assessed as QRS ECG interval at 40 mg/kg, ip measured immediately at 0 min (reference value: 19.6 +/- 1.142 ms)", "type": "organism-based", "design": "dose 40 mg/kg, route intraperitoneal", "conditions": "in vivo, 0 h"}, "Rattus norvegicus [16]": {"test_system": "Rattus norvegicus", "test": "Toxicity in anaesthetized-Wistar rat assessed as QRS ECG interval at 40 mg/kg, ip after 60 mins (reference value: 19.3 +/- 0.873 ms)", "type": "organism-based", "design": "dose 40 mg/kg, route intraperitoneal", "conditions": "in vivo, 1 h"}, "Rattus norvegicus [17]": {"test_system": "Rattus norvegicus", "test": "Toxicity in […] normotensive Wistar rat assessed as mean arterial pressure at 40 mg/kg, ip after 15 mins (reference value: 93.81 +/- 1.543 mmHg)", "type": "organism-based, Artery", "design": "dose 40 mg/kg, route intraperitoneal", "conditions": "in vivo, 0.25 h"}, "Rattus norvegicus [18]": {"test_system": "Rattus norvegicus", "test": "Toxicity in anaesthetized-Wistar rat assessed as P-Q ECG interval at 40 mg/kg, ip measured immediately at 0 min (reference value: 52.4 +/- 0.927 ms)", "type": "organism-based", "design": "dose 40 mg/kg, route intraperitoneal", "conditions": "in vivo, 0 h"}, "Rattus norvegicus [19]": {"test_system": "Rattus norvegicus", "test": "Toxicity in anaesthetized-Wistar rat assessed as Q-T ECG interval at 40 mg/kg, ip after 15 mins (reference value: 79.4 +/- 1.270 ms)", "type": "organism-based", "design": "dose 40 mg/kg, route intraperitoneal", "conditions": "in vivo, 0.25 h"}, "Rattus norvegicus [20]": {"test_system": "Rattus norvegicus", "test": "Toxicity in anaesthetized-Wistar rat assessed as Q-T ECG interval at 40 mg/kg, ip measured immediately at 0 min (reference value: 78.8 +/- 1.030 ms)", "type": "organism-based", "design": "dose 40 mg/kg, route intraperitoneal", "conditions": "in vivo, 0 h"}, "Rattus norvegicus [21]": {"test_system": "Rattus norvegicus", "test": "Toxicity in anesthetized-normotensive Wistar rat assessed as heart rate at 40 mg/kg, ip after 45 mins (reference value: 316.82 +/- 8.452 bpm)", "type": "organism-based", "design": "dose 40 mg/kg, route intraperitoneal", "conditions": "in vivo, 0.75 h"}, "Rattus norvegicus [22]": {"test_system": "Rattus norvegicus", "test": "Toxicity in anesthetized-normotensive Wistar rat assessed as heart rate at 40 mg/kg, ip after 60 mins (reference value: 314.96 +/- 9.442 bpm)", "type": "organism-based", "design": "dose 40 mg/kg, route intraperitoneal", "conditions": "in vivo, 1 h"}, "Rattus norvegicus [23]": {"test_system": "Rattus norvegicus", "test": "Toxicity in […] normotensive Wistar rat assessed as mean arterial pressure at 40 mg/kg, ip after 60 mins (reference value: 95.07 +/- 1.973 mmHg)", "type": "organism-based, Artery", "design": "dose 40 mg/kg, route intraperitoneal", "conditions": "in vivo, 1 h"}, "Rattus norvegicus [24]": {"test_system": "Rattus norvegicus", "test": "Toxicity in anaesthetized-Wistar rat assessed as P-Q ECG interval at 40 mg/kg, ip after 45 mins (reference value: 52.5 +/- 0.780 ms)", "type": "organism-based", "design": "dose 40 mg/kg, route intraperitoneal", "conditions": "in vivo, 0.75 h"}, "Rattus norvegicus [25]": {"test_system": "Rattus norvegicus", "test": "Toxicity in anesthetized-normotensive Wistar rat assessed as heart rate at 40 mg/kg, ip measured immediately at 0 min (reference value: 316.62 +/- 9.643 bpm)", "type": "organism-based", "design": "dose 40 mg/kg, route intraperitoneal", "conditions": "in vivo, 0 h"}, "Rattus norvegicus [26]": {"test_system": "Rattus norvegicus", "test": "Toxicity in anaesthetized-Wistar rat assessed as QRS ECG interval at 40 mg/kg, ip after 15 mins (reference value: 18.9 +/- 1.563 ms)", "type": "organism-based", "design": "dose 40 mg/kg, route intraperitoneal", "conditions": "in vivo, 0.25 h"}, "Rattus norvegicus [27]": {"test_system": "Rattus norvegicus", "test": "Antihypertensive activity in Wistar rat assessed as mean arterial pressure at 40 mg/kg, ip measured immediately at 0 min (reference value: 194.08 +/- 1.962 mmHg)", "type": "functional, Artery", "conditions": "route intraperitoneal"}, "Rattus norvegicus [28]": {"test_system": "Rattus norvegicus", "test": "Antiarrhythmic activity in barium chloride-induced Wistar rat assessed as increase in appearance time of arrhythmia at 40 mg/kg, ip administered 60 mins before barium chloride challenge (reference value: 129.4 +/- 4.373 sec)", "type": "functional, Heart", "conditions": "route intraperitoneal"}, "Rattus norvegicus [29]": {"test_system": "Rattus norvegicus", "test": "Toxicity in anaesthetized-Wistar rat assessed as QRS ECG interval at 40 mg/kg, ip after 30 mins (reference value: 19.9 +/- 1.393 ms)", "type": "organism-based", "design": "dose 40 mg/kg, route intraperitoneal", "conditions": "in vivo, 0.5 h"}, "Rattus norvegicus [30]": {"test_system": "Rattus norvegicus", "test": "Toxicity in anaesthetized-Wistar rat assessed as P-Q ECG interval at 40 mg/kg, ip after 60 mins (reference value: […] +/- 0.924 ms)", "type": "organism-based", "design": "dose 40 mg/kg, route intraperitoneal", "conditions": "in vivo, 1 h"}, "Rattus norvegicus [31]": {"test_system": "Rattus norvegicus", "test": "Antihypertensive activity in Wistar rat assessed as mean arterial pressure at 40 mg/kg, ip after 15 mins (reference value: 195.68 +/- 1.623 mmHg)", "type": "functional, Artery", "conditions": "route intraperitoneal"}}, "data": [{"smiles": "CN1CCN(CC(O)CN2C(=O)/C(=C\\c3ccccc3)S/C2=N\\c2ccccc2)CC1", "note": "(stereo unspecified)", "values": [{"measurement": "Activity", "setting": "Rattus norvegicus [1]", "result": 53.2, "unit": "min"}, {"measurement": "Time", "setting": "Rattus norvegicus [2]", "result": 1276, "unit": "s"}, {"measurement": "Activity", "setting": "Rattus norvegicus [3]", "result": 75.2, "unit": "min"}, {"measurement": "Activity", "setting": "Rattus norvegicus [4]", "result": 134.44, "unit": "mmHg"}, {"measurement": "Activity", "setting": "Rattus norvegicus [5]", "result": 75.6, "unit": "ms"}, {"measurement": "Activity", "setting": "Rattus norvegicus [6]", "result": 54.4, "unit": "min"}, {"measurement": "Activity", "setting": "Rattus norvegicus [7]", "result": 91.93, "unit": "mmHg"}, {"measurement": "Activity", "setting": "Rattus norvegicus [8]", "result": 63.43, "unit": "mmHg"}, {"measurement": "Activity", "setting": "Rattus norvegicus [9]", "result": 256.32, "unit": "bpm"}, {"measurement": "Activity", "setting": "Rattus norvegicus [10]", "result": 162.19, "unit": "mmHg"}, {"measurement": "Activity", "setting": "Rattus norvegicus [11]", "result": 157.99, "unit": "mmHg"}, {"measurement": "Activity", "setting": "Rattus norvegicus [12]", "result": 23.6, "unit": "min"}, {"measurement": "Activity", "setting": "Rattus norvegicus [13]", "result": 290.24, "unit": "bpm"}, {"measurement": "Activity", "setting": "Rattus norvegicus [14]", "result": 64.51, "unit": "mmHg"}, {"measurement": "Activity", "setting": "Rattus norvegicus [15]", "result": 22.4, "unit": "min"}, {"measurement": "Activity", "setting": "Rattus norvegicus [16]", "result": 24, "unit": "min"}, {"measurement": "Activity", "setting": "Rattus norvegicus [17]", "result": 79.37, "unit": "mmHg"}, {"measurement": "Activity", "setting": "Rattus norvegicus [18]", "result": 53, "unit": "ms"}, {"measurement": "Activity", "setting": "Rattus norvegicus [19]", "result": 74.8, "unit": "min"}, {"measurement": "Activity", "setting": "Rattus norvegicus [20]", "result": 74.5, "unit": "min"}, {"measurement": "Activity", "setting": "Rattus norvegicus [21]", "result": 283.56, "unit": "bpm"}, {"measurement": "Activity", "setting": "Rattus norvegicus [22]", "result": 302.28, "unit": "bpm"}, {"measurement": "Activity", "setting": "Rattus norvegicus [23]", "result": 74.63, "unit": "mmHg"}, {"measurement": "Activity", "setting": "Rattus norvegicus [24]", "result": 54.9, "unit": "min"}, {"measurement": "Activity", "setting": "Rattus norvegicus [25]", "result": 305.65, "unit": "bpm"}, {"measurement": "Activity", "setting": "Rattus norvegicus [26]", "result": 22.6, "unit": "min"}, {"measurement": "Activity", "setting": "Rattus norvegicus [27]", "result": 196.43, "unit": "mmHg"}, {"measurement": "Time", "setting": "Rattus norvegicus [28]", "result": 349.7, "unit": "s"}, {"measurement": "Activity", "setting": "Rattus norvegicus [29]", "result": 23.2, "unit": "ms"}, {"measurement": "Activity", "setting": "Rattus norvegicus [30]", "result": 55.6, "unit": "min"}, {"measurement": "Activity", "setting": "Rattus norvegicus [31]", "result": 182.76, "unit": "mmHg"}]}]}
